How the values were obtained:
[1] = Appearance of potential mediator in water; assay type: physicochemical
laccase (NS51003) = test: Chicago Blue (Direct Blue 1) dye bleaching assay for laccase mediators; assay type: biochemical, Aspergillus sp.; details: potential mediator 0.1 micromole/ml, decrease in absorbance at 610 nm
Procedure: The Chicago Blue Dye, also known as Direct Blue 1 or DB 1, was used to identify these compounds. The Chicago Blue Dye is fully described by Schneider et al. in U.S. Pat. No. 5,885,304, which is hereby incorporated by reference, and has the following formula. [drawing 10]
Each of the test compounds (i.e., potential mediators) was dissolved in water, or in ethanol if the potential mediator was not water soluble, and then mixed with a phosphate buffer and a Chicago Blue solution. […] The change in the absorbance at A610 nm was measured immediately using a UV-VIS spectrophotometer (UV-1201, Shimadzu Scientific Instruments) after the enzyme was added. The decrease in absorbance was recorded at 30-second intervals for 5 minutes and was used to estimate the efficiency of the mediator.
Experiments were conducted at pH levels of 5.5 and 7.0. The last column gives the decrease in absorbance at 610 nm. The larger the decrease in absorbance at 610 nm, the better is the ability to discolor the dye.

[2] = tested on: laccase (NS51003, Novozymes A/S) and xylanase (Pulpzyme HC, Novozymes A/S); test: Bleaching of Chicago Blue at pH 7.0 with laccase and xylanase combination; assay type: biochemical; details: mediator 20 μM
Procedure: In the following example, the enzyme enhancing agent N-benzylidenebenzylamine was used as a mediator for a laccase to enhance the bleaching of Chicago Blue at pH 7.0 in the presence of a laccase and a xylanase.
The activity of the xylanase (Pulpzyme HC, Novozymes A/S) is 1000 units per ml enzyme solution. One xylanase unit is defined as the amount of enzyme which, under standard conditions (pH 9.0, 50° C., 30 minutes of incubation), release one micromole of the dye from a dyed RBB xylan.
N-Benzylidenebenzylamine was dissolved in ethanol and then mixed with a phosphate buffer and a Chicago Blue solution. A solution of laccase (NS51003, Novozymes A/S) and xylanase (Pulpzyme HC, Novozymes A/S) was added to make 1 ml of the final solution, containing 20 uM of the mediator, 20 mM buffer at pH 7.0 and Chicago Blue solution, with absorbance at A610 nm between 0.6 to 0.8. After the enzyme was added, the change in the absorbance was measured immediately using a UV spectrophotometer (UV-1201, Shimadzu Scientific Instruments). The decrease in absorbance was recorded after 3 minutes and was used to estimate the results of bleaching.

Structure (SMILES)	Appearance in water ([1]; Table 1 (pH 5.5 series))	ΔmA610 (3 min) (laccase (NS51003); pH 5.5)	also measured
O=C(O)C=Cc1ccc(O)cc1 [4-Hydroxycinnamic acid]	clear	42	–
COc1cc(C=CC(=O)O)ccc1O [4-Hydroxy-3-methoxycinnamic acid]	–	441	–
COc1ccc(C=CC(=O)O)cc1O [3-Hydroxy-4-methoxycinnamic acid]	clear	94	–
COc1cccc(C=CC(=O)O)c1 [3-Methoxycinnamic acid]	clear	4	–
CN(C)c1ccc(C=CC(=O)O)cc1 [4-(Dimethylamino)cinnamic acid]	clear, yellow	519	–
COc1ccc(C=CC(=O)O)cc1OC [3,4-Dimethoxycinnamic acid]	clear	0	–
O=C(O)C=Cc1cccc(Cl)c1 [3-Chlorocinnamic acid]	cloudy	8	–
O=C(O)C=Cc1ccccc1Cl [2-Chlorocinnamic acid]	cloudy	9	–
O=C(O)C=Cc1ccc([N+](=O)[O-])cc1 [4-Nitrocinnamic acid]	cloudy	0	–
CCOC(=O)c1ccccc1O [Ethyl Salicylate]	cloudy	2	–
Nc1ccc(C=CC(=O)O)cc1 [4-Aminocinnamic acid]	clear	43	–
O=C1Nc2ccccc2C1=O [Isatin]	clear	6	–
COc1ccc(CO)cc1OC [Veratryl alcohol]	clear	3	–
O=C(O)C=Cc1ccc(Cl)cc1 [4-Chlorocinnamic acid]	cloudy	13	–
O=C(O)C=Cc1ccccc1O [2-Hydroxycinnamic acid]	clear	5	–
O=C(O)C=Cc1ccccc1 [Cinnamic acid]	clear	3	–
Nc1ccccn1 [2-Aminopyridine]	light brown	3	Appearance in water ([1]; Table 2 (pH 7.0 series)): light brown; ΔmA610 (3 min) (laccase (NS51003); pH 7.0): 2
C(=NCc1ccccc1)c1ccccc1 [N-benzylidene benzylamine]	clear	28	Appearance in water ([1]; Table 2 (pH 7.0 series)): clear; mA610 (3 min) ([2]; laccase 0% v/v, xylanase 0.5% v/v): 112; mA610 (3 min) ([2]; laccase 0.5% v/v, xylanase 0% v/v): 11; mA610 (3 min) ([2]; laccase 0.5% v/v, xylanase 0.5% v/v): 163; ΔmA610 (3 min) (laccase (NS51003); pH 7.0): 2
Nc1nc(N)nc(N)n1 [Melamine]	cloudy	128	–
COc1ccc(C=CC(=O)O)cc1 [4-Methoxycinnamic acid]	cloudy	6	–
COc1cc(C=CC(=O)O)cc(OC)c1O [3,5-Dimethoxy-4-hydroxycinnamic acid]	clear	491	–
COc1cc(C=CC(=O)O)cc(OC)c1OC [3,4,5-Trimethoxycinnamic acid]	cloudy	5	–
O=C(O)C=Cc1cccc(O)c1 [3-Hydroxycinnamic acid]	clear	7	–
O=C(O)c1ccccc1O [Salicylic acid]	clear	11	–

Reference: US20030096394A1, “Laccase activity enhancers” (priority 2001, published 2003)
